Activity calls are given as the source filed them. The rule behind the calls is not given here.
Columns and labels:
[1] = Effect on HDAC5 protein expression in human NCI-H1975 cells assessed as fold change at 0.1 uM incubated for 24 hrs by immunoblotting analysis (reference value: 1); format: functional
[2] = Upregulation of acetylated H4 protein expression in human MDA-MB-231 cells assessed as fold change at 0.1 uM incubated for 24 hrs by immunoblotting analysis (reference value: 1); format: functional
[3] = Upregulation of acetylated H4 protein expression in human NCI-H1975 cells assessed as fold change at 0.05 uM incubated for 24 hrs by immunoblotting analysis (reference value: 1); format: functional
[4] = target: T1, Histone deacetylase 11 (Homo sapiens, UniProt Q96DB2); test: Inhibition of recombinant human HDAC11 using acetylated luminogenic substrate incubated for 10 mins by ultra-glo recombinant firefly luciferase based luminescence assay
T1 sequence (Q96DB2 whole entry): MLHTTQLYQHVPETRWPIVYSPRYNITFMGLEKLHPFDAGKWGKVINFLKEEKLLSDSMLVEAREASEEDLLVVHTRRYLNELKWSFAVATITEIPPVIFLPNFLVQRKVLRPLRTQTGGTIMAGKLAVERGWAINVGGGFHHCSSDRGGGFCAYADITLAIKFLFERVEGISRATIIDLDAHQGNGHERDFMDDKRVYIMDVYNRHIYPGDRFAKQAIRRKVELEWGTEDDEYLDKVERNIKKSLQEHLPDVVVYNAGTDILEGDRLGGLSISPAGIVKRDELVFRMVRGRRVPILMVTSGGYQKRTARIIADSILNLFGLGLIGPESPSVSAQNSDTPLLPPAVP

[5] = Downregulation of HDAC1 protein expression in human NCI-H1975 cells assessed as fold change at 0.1 uM incubated for 24 hrs by immunoblotting analysis (reference value: 1); format: functional
[6] = Toxicity in athymic nude BALB/c mouse xenografted with human NCI-H1975 cells assessed as effect on BUN level at 6 mg/kg, ip administered 5 times a week for 3 weeks and measured on day 22; format: organism-based; conditions: in vivo, 528 h, time 22 day
[7] = Effect on HDAC8 protein expression in human MDA-MB-231 cells assessed as fold change at 0.1 uM incubated for 24 hrs by immunoblotting analysis (reference value: 1); format: functional
[8] = test system: MDA-MB-231; test: Antitumor activity against human MDA-MB-231 cells xenografted in athymic nude BALB/c mouse assessed as reduction in tumor growth at 3 mg/kg, ip administered 5 times a week for 7 weeks by vernier caliper method; format: functional, organism-based
[9] = Upregulation of acetylated H3 protein expression in human NCI-H1975 cells assessed as fold change at 0.05 uM incubated for 24 hrs by immunoblotting analysis (reference value: 1); format: functional
[10] = target: Histone deacetylase 2 (Homo sapiens, UniProt Q92769); test: Inhibition of recombinant human HDAC2 using acetylated luminogenic substrate incubated for 10 mins by ultra-glo recombinant firefly luciferase based luminescence assay
Sequence of Histone deacetylase 2 (Q92769 whole entry): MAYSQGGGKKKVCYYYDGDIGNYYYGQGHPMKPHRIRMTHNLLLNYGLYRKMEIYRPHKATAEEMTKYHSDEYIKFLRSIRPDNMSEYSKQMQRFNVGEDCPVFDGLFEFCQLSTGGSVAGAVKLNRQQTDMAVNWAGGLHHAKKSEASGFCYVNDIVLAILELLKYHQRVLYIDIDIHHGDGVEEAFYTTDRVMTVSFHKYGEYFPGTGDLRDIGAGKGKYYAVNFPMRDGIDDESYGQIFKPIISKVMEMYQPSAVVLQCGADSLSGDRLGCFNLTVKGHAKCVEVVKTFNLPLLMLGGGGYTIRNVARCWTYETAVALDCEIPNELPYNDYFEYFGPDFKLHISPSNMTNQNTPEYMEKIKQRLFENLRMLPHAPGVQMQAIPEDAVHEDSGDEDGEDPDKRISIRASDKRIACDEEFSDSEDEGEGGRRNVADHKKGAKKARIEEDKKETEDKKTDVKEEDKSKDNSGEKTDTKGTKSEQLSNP

[11] = Downregulation of HDAC5 protein expression in human MDA-MB-231 cells assessed as fold change at 0.1 uM incubated for 24 hrs by immunoblotting analysis (reference value: 1); format: functional

IC50 [4]: 49.9 nM
IC50 [10]: 11.5 nM
Structure (SMILES): CCOc1ccc(-c2nc(C(=O)NCc3ccc(C(=O)NO)cc3)c3[nH]c(=O)n(-c4cccnc4OC)c3n2)cn1
fold change (FC) [1]: 1.53
fold change (FC) [2]: 2.91
fold change (FC) [3]: 1.7
fold change (FC) [5]: 0.95
Activity [6]: Non-Toxic
fold change (FC) [7]: 1.08
Activity [8]: Active
fold change (FC) [9]: 1.77
fold change (FC) [11]: 0.99

From ChEMBL document CHEMBL5518174 (Eur J Med Chem, 2024)
